Results: ChEMBL document CHEMBL1158945, “Four Novel Diterpenoids: Clavirolides B, C, D, and E from the Chinese Soft Coral Clavularia viridis” (J Nat Prod, 1991)
In brackets after ≈: the same amount, converted by molar mass.

What was measured:
[1] = Cytotoxicity against mouse EAC cells; format: functional, cell-based; conditions: Ehrlich
Oryctolagus cuniculus = species on record: Oryctolagus cuniculus; experiment: Blocked of calcium channel in rabbit smooth muscle; format: tissue-based; conditions: Muscle tissue
Rattus norvegicus = experiment: Decrease in blood pressure in rat at 45 uM/kg; format: organism-based
Heart = experiment: Toxicity in isolated guinea pig heart assessed as bradycardia at 45 uM/kg; format: tissue-based, Cavia porcellus; conditions: ex_vivo
[2] = Negative inotropic activity in guinea pig atria muscle at 36 uM; format: functional, Cavia porcellus, Muscle tissue

Row | Compound | IC50 [1] | pD2 (Oryctolagus cuniculus) | Activity (Rattus norvegicus) | Activity (Heart) | Activity [2]
1 | CC1=C2CC[C@@]3(C)CC/C(C)=C\C(=O)C[C@@H](C)C[C@@H](OC1=O)[C@H]23 [CLAVIROLIDE D] | 11.7 µg/mL (≈ 37 µM) | 4.79 |  |  | 
2 | CC1=C2CC[C@@]3(C)C/C=C(\C)CC(=O)C[C@@H](C)C[C@@H](OC1=O)[C@H]23 [CLAVIROLIDE B] | 21 µg/mL (≈ 66.4 µM) | 4.68 |  |  | 
3 | CC1=C2CC[C@@]3(C)C/C=C(/C)CC(=O)C[C@@H](C)C[C@@H](OC1=O)[C@H]23 [CLAVULACTONE] | 8 µg/mL (≈ 25.3 µM) |  |  |  | 
4 | CC1=C2CC[C@@]3(C)CC[C@H](C)CC(=O)C[C@@H](C)C[C@@H](OC1=O)[C@H]23 [CLAVIROLIDE C] | 27 µg/mL (≈ 84.8 µM) | 5.48 | 24 mmHg | 43.7% | 50%
